# Paper PMC10574154, “Antioxidant and Anti-Aging Phytoconstituents from Faucaria tuberculosa: In Vitro and In Silico Studies” (Molecules, 2023)
# Key:
# [1] = ABTS radical scavenging assay; format: biochemical; conditions: mean ± SD (n = 3)
# [2] = Ferric reducing/antioxidant power (FRAP) assay; format: biochemical; conditions: mean ± SD (n = 3)
# Method: The antioxidant activity of the isolated compounds was determined using ABTS and FRAP assays in triplicate, and the average values were considered.
# Herein, antioxidant potential was measured based on the samples’ ability to reduce ferric to ferrous ion. This method relies on the reduction of ferricyanide relative to the sample. Samples (1 mL) were mixed with 2.5 mL of each of sodium phosphate buffer and K3Fe (CN)6, and then the reaction mixture was incubated (50 °C, 20 min). Afterward, 2.5 mL of trichloroacetic acid was added, and centrifugation (1000× g, 10 min) was carried out. Some 2.5 mL of the supernatant solution and an equal amount of deionized H2O and 0.5 mL of ferric chloride were then mixed, and the absorbance was recorded at 700 nm.
smiles,measurement,setting,value
"OC[C@H]1O[C@@H](Oc2cc(O)cc(O)c2)[C@H](O)[C@@H](O)[C@@H]1O [Compound 2, 3,5-dihydroxyphenyl β-D-glucopyranoside]",IC50 Value ABTS Assay,[1],43.40 ± 3.18 µg/mL
same,IC50 Value FRAP Assay,[2],64.52 ± 4.15 µg/mL
"COc1cc(-c2oc3cc(O)cc(O)c3c(=O)c2OC2OC(COC3OC(C)C(OC4OC(C)C(O)C(O)C4O)C(O)C3O)C(O)C(O)C2O)ccc1O (stereo not drawn) [Compound 5, Isorhamnetin 3-O-[α-rhamnopyranosyl-(1→4)-α-rhamnopyranosyl-(1→6)-β-glucopyranoside]]",IC50 Value ABTS Assay,[1],18.19 ± 2.94 µg/mL
same,IC50 Value FRAP Assay,[2],35.04 ± 2.89 µg/mL
"COc1cc(-c2oc3cc(O)cc(O)c3c(=O)c2OC2OC(COC3OC(C)C(O)C(O)C3O)C(O)C(O)C2O)ccc1O (stereo not shown) [Compound 3, isorhamnetin 3-O-rutinoside]",IC50 Value ABTS Assay,[1],12.24 ± 0.61 µg/mL
same,IC50 Value FRAP Assay,[2],25.24 ± 2.03 µg/mL
"Oc1cc(O)cc(O)c1 [Compound 1, phloroglucinol]",IC50 Value ABTS Assay,[1],6.44 ± 0.47 µg/mL
same,IC50 Value FRAP Assay,[2],12.89 ± 0.93 µg/mL
"O=C1O[C@H]([C@@H](O)CO)C(O)=C1O [Ascorbic acid, reference compound]",IC50 Value ABTS Assay,[1],10.67 ± 0.85 µg/mL
same,IC50 Value FRAP Assay,[2],20.86 ± 1.28 µg/mL
